Key:
[1] = Particle size and polydispersity index (PDI) of lipid nanoparticles by dynamic light scattering; type: physicochemical
Experimental: The particle size and polydispersity index (PDI) were determined by dynamic light scattering using Malvern laser particle size analyzer.
10 μL of the liposome solution was weighed, diluted to 1 mL with RNase-free deionized water, and added to the sample pool. Each sample was measured in triplicate. The measurement conditions were: […] scattering angle, and 25° C.

293T cells [2] = experiment: Fluorescent detection of Fluc-mRNA (cell transfection efficiency of LNP formulations); type: cell-based
293T cells [3] = experiment: Cell survival rate assay (CCK-8); type: cell-based
How it was run: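 293T cells seeded at 10,000 cells/well, cultured overnight, then exposed 24 h to LNP carrying 1.5 μg Fluc-mRNA (cationic:neutral:structured:PEG-type lipid 49:10:39.5:1.5) or Lipofectamine 3000. Viability read by CCK-8, 1 h incubation, absorbance at 450 nm.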

female BALB/C mice = experiment: In vivo imaging in mice of Fluc-mRNA LNP formulations (mRNA expression and duration)
How it was run: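 Female BALB/C mice (4-6 weeks, 17-19 g) received LNP carrying […] Fluc-mRNA intramuscularly. At 6h, 24 h, 48h and 7d, fluorescent imaging substrate was given intraperitoneally and after 5 minutes average radiance, as a measure of expressed protein, was imaged on an IVIS Spectrum system.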

293T cells [4] = experiment: Fluorescent detection of Fluc-mRNA (cell transfection efficiency of LNP formulations); type: cell-based; remark: listed apart in the source

SMILES: CCCCCCCCC(CCCCCCCC)OC(=O)CCCCCCCN(CCO)CCN(CCO)CCCCCCCC(=O)OC(CCCCCCCC)CCCCCCCC [YK-403, di(heptadecan-9-yl) 8, 8′-(ethane-1,2-diyl-bis((2-hydroxyethyl)azanediyl))dioctanoate]
- PDI ([1]; LNP formulation of the cationic lipid, 25° C.): 16.5%
- Particle size ([1]; LNP formulation of the cationic lipid/DSPC/cholesterol/DMG-PEG2000 49:10:39.5:1.5, 25° C.): 163 nm
- Relative light unit (RLU) (293T cells [2]; LNP with 0.3 μg Fluc-mRNA, 96-well plate, 24 hours): 5249304 RLU
- cell transfection efficiency, times that of YK-415 (293T cells [2]; ratio vs YK-415): 17.61
- cell transfection efficiency, times that of YK-417 (293T cells [2]; ratio vs YK-417): 44.76
- cell transfection efficiency, times that of YK-418 (293T cells [2]; ratio vs YK-418): 47.18
- cell transfection efficiency, times that of YK-424 (293T cells [2]; ratio vs YK-424): 1.82
- RLU value, times that of compound 21 (293T cells [2]; ratio vs compound 21): 3.47
- RLU value, times that of compound 23 (293T cells [2]; ratio vs compound 23): 3.74
- Cell survival rate (293T cells [3]; LNP with 1.5 μg Fluc-mRNA, 24 hours, CCK-8): 70.76%
- cell survival rate higher than ALC-0315 (293T cells [3]; difference vs ALC-0315): 23.55%
- cell survival rate higher than HIMA (293T cells [3]; difference vs HIMA (HHMA)): 6.49%
- cell survival rate higher than Lipofectamine 3000 (293T cells [3]; difference vs Lipofectamine 3000): 49.10%
- cell survival rate higher than SM-102 (293T cells [3]; difference vs SM-102): 2.86%
- cell survival rate higher than YK-404 (293T cells [3]; difference vs YK-404): 28.64%
- cell survival rate higher than YK-405 (293T cells [3]; difference vs YK-405): 28.90%
- cell survival rate higher than YK-406 (293T cells [3]; difference vs YK-406): 45.80%
- cell survival rate higher than YK-408 (293T cells [3]; difference vs YK-408): 28.45%
- cell survival rate higher than YK-409 (293T cells [3]; difference vs YK-409): 24.65%
- cell survival rate higher than YK-410 (293T cells [3]; difference vs YK-410): 25.84%
- cell survival rate higher than YK-411 (293T cells [3]; difference vs YK-411): 54.43%
- cell survival rate higher than YK-412 (293T cells [3]; difference vs YK-412): 16.62%
- cell survival rate higher than YK-413 (293T cells [3]; difference vs YK-413): 23.56%
- cell survival rate higher than YK-414 (293T cells [3]; difference vs YK-414): 42.01%
- cell survival rate higher than YK-415 (293T cells [3]; difference vs YK-415): 9.60%
- cell survival rate higher than YK-416 (293T cells [3]; difference vs YK-416): 29.79%
- cell survival rate higher than YK-417 (293T cells [3]; difference vs YK-417): 49.42%
- cell survival rate higher than YK-418 (293T cells [3]; difference vs YK-418): 49.71%
- cell survival rate higher than YK-419 (293T cells [3]; difference vs YK-419): 31.84%
- cell survival rate higher than YK-420 (293T cells [3]; difference vs YK-420): 35.17%
- cell survival rate higher than YK-421 (293T cells [3]; difference vs YK-421): 35.05%
- cell survival rate higher than YK-424 (293T cells [3]; difference vs YK-424): 42.83%
- cell survival rate higher than compound 21 (293T cells [3]; difference vs compound 21): 2.92%
- cell survival rate higher than compound 23 (293T cells [3]; difference vs compound 23): 1.65%
- cytotoxicity reduced compared with YK-411 (293T cells [3]; rounded summary statement vs YK-411): 50%
- average radiation intensity, times that of ALC-0315 (female BALB/C mice; 6 h): 1.89
- average radiation intensity, times that of HHMA (female BALB/C mice; 6 h): 2.40
- average radiation intensity, times that of SM-102 (female BALB/C mice; 6 h): 2.30
- average radiation intensity, times that of compound 21 (female BALB/C mice; 6 h): 2.65
- average radiation intensity, times that of compound 23 (female BALB/C mice; 6 h): 2.73
- expression amount in mice, times that of YK-415 (female BALB/C mice; 6 h): 13.48
- expression amount in mice, times that of YK-417 (female BALB/C mice; 6 h): 26.26
- mRNA expression in mice, times that of YK-411 (female BALB/C mice; 6 h): 271.52
- average radiation intensity, times that of ALC-0315 (female BALB/C mice; 24 h): 4.51
- average radiation intensity, times that of HHMA (female BALB/C mice; 24 h): 7.13
- average radiation intensity, times that of SM-102 (female BALB/C mice; 24 h): 6.93
- average radiation intensity, times that of compound 21 (female BALB/C mice; 24 h): 7.70
- average radiation intensity, times that of compound 23 (female BALB/C mice; 24 h): 8.47
- expression amount in mice, times that of YK-415 (female BALB/C mice; 24 h): 13.26
- expression amount in mice, times that of YK-417 (female BALB/C mice; 24 h): 42.79
- mRNA expression in mice, times that of YK-411 (female BALB/C mice; 24 h): 422.95
- average radiation intensity, times that of ALC-0315 (female BALB/C mice; 48 h): 7.69
- average radiation intensity, times that of HHMA (female BALB/C mice; 48 h): 9.25
- average radiation intensity, times that of SM-102 (female BALB/C mice; 48 h): 9.39
- average radiation intensity, times that of compound 21 (female BALB/C mice; 48 h): 9.78
- average radiation intensity, times that of compound 23 (female BALB/C mice; 48 h): 9.37
- expression amount in mice, times that of YK-415 (female BALB/C mice; 48 h): 19.54
- expression amount in mice, times that of YK-417 (female BALB/C mice; 48 h): 43.80
- mRNA expression in mice, times that of YK-411 (female BALB/C mice; 48 h): 316.45
- average radiation intensity, times that of ALC-0315 (female BALB/C mice; 7 d): 1.41
- average radiation intensity, times that of HHMA (female BALB/C mice; 7 d): 1.65
- average radiation intensity, times that of SM-102 (female BALB/C mice; 7 d): 1.47
- average radiation intensity, times that of compound 21 (female BALB/C mice; 7 d): 1.55
- average radiation intensity, times that of compound 23 (female BALB/C mice; 7 d): 1.61
- expression amount in mice, times that of YK-415 (female BALB/C mice; 7 d): 2.44
- expression amount in mice, times that of YK-417 (female BALB/C mice; 7 d): 4.32
- mRNA expression in mice, times that of YK-411 (female BALB/C mice; 7 d): 20.54
- average radiation intensity, 6 h (female BALB/C mice; Fluc-mRNA LNP intramuscular, 6 h after administration): 1588400
- average radiation intensity, 24 h (female BALB/C mice; Fluc-mRNA LNP intramuscular, 24 h after administration): 855204
- average radiation intensity, 48 h (female BALB/C mice; Fluc-mRNA LNP intramuscular, 48 h after administration): 308540
- average radiation intensity, 7 d (female BALB/C mice; Fluc-mRNA LNP intramuscular, 7 d after administration): 9857
- RLU value, times that of ALC-0315 (293T cells [4]; ratio vs ALC-0315): 2.40
- RLU value, times that of HHMA (293T cells [4]; ratio vs HHMA): 2.52
- RLU value, times that of Lipofectamine 3000 (293T cells [4]; ratio vs Lipofectamine 3000): 4.37
- RLU value, times that of YK-009 (293T cells [4]; ratio vs YK-009): 1.02
- RLU value, times that of YK-405 (293T cells [4]; ratio vs YK-405): 1.64
- RLU value, times that of YK-406 (293T cells [4]; ratio vs YK-406): 67.08
- RLU value, times that of YK-408 (293T cells [4]; ratio vs YK-408): 3.56
- RLU value, times that of YK-409 (293T cells [4]; ratio vs YK-409): 7.84
- RLU value, times that of YK-410 (293T cells [4]; ratio vs YK-410): 12.87
- cell transfection efficiency, times that of YK-412 (293T cells [4]; ratio vs YK-412): 1.56
- cell transfection efficiency, times that of YK-413 (293T cells [4]; ratio vs YK-413): 3.81
- cell transfection efficiency, times that of YK-414 (293T cells [4]; ratio vs YK-414): 11.82
- cell transfection efficiency, times that of YK-416 (293T cells [4]; ratio vs YK-416): 1.32
- cell transfection efficiency, times that of YK-419 (293T cells [4]; ratio vs YK-419): 1.66
- cell transfection efficiency, times that of YK-420 (293T cells [4]; ratio vs YK-420): 1.31
- cell transfection efficiency, times that of YK-421 (293T cells [4]; ratio vs YK-421): 11.25

Reference: patent publication US12545637B2, “Extrahepatic targeted cationic lipid compound with high efficiency and low toxicity and its composition” (BEIJING YOUCARE KECHUANG PHARMACEUTICAL TECHNOLOGY CO., LTD., priority 2023, dated 2026)
